The record followed here is ChEMBL document CHEMBL1649380, “Prediction of drug intestinal absorption by new linear and non-linear QSPR” (Eur J Med Chem, 2011).

The data set in a line: Drug absorption in human assessed as human intestinal absorption rate. The data set is classed as ADME, tissue-based, Intestine.

For `O=C(O)c1ccccc1C(=O)Nc1ccc(S(=O)(=O)Nc2nccs2)cc1` [PHTHALYLSULFATHIAZOLE], the “log10(%HIA +10)” value amounted to 1.176.

Regarding `O=c1[nH]c2ccccc2n1C1CCN(CCCC(c2ccc(F)cc2)c2ccc(F)cc2)CC1` [PIMOZIDE], the “log10(%HIA +10)” value is 1.903. As for `CC(C)(C)NCC(O)c1ccc(O)c(CO)n1` (centres undefined) [PIRBUTEROL], the figure is 1.845; as for `CC[C@H](C)C(=O)O[C@H]1C[C@H](O)C=C2C=C[C@H](C)[C@H](CC[C@@H](O)C[C@@H](O)CC(=O)O)[C@H]21` [PRAVASTATIN], 1.643.

As to `CC(C)NCC(O)COc1cccc2ccccc12` (centres undefined) [PROPRANOLOL], the “log10(%HIA +10)” value is 2.037.

Take `CCCc1cc(=O)[nH]c(=S)[nH]1` [PROPYLTHIOURACIL]: the “log10(%HIA +10)” value worked out at 1.929.

As for `OCCOCCN1CCN(C2=Nc3ccccc3Sc3ccccc32)CC1` [QUETIAPINE], the “log10(%HIA +10)” value is on record as 1.919. Turning to `OC[C@H]1O[C@H](OC[C@H]2O[C@H](O[C@]3(CO)O[C@H](CO)[C@@H](O)[C@@H]3O)[C@H](O)[C@@H](O)[C@@H]2O)[C@H](O)[C@@H](O)[C@H]1O` [RAFFINOSE], the “log10(%HIA +10)” value was 1.013. Next, `CNC(=C[N+](=O)[O-])NCCSCc1ccc(CN(C)C)o1` [RANITIDINE]: 1.798. Take `Cn1c(=O)c2c(ncn2CCCNCC(O)c2cc(O)cc(O)c2)n(C)c1=O` (centres undefined) [REPROTEROL]: the “log10(%HIA +10)” value worked out at 1.845. Take `Oc1ccc(C(O)C2CCCCN2)cc1O` (centres undefined) [RIMITEROL]: the “log10(%HIA +10)” value is reported as 1.763. Take `O=P(O)(O)C(O)(Cc1cccnc1)P(=O)(O)O` [RISEDRONIC ACID]: the “log10(%HIA +10)” value stood at 1.041. As for `CCN(C)C(=O)Oc1cccc([C@H](C)N(C)C)c1` [RIVASTIGMINE], the figure is 2.041; as for `O=C1NS(=O)(=O)c2ccccc21` [SACCHARIN], 1.991. Take `CC(C)NCC(O)c1ccc(NS(C)(=O)=O)cc1` (centres undefined) [SOTALOL]: the “log10(%HIA +10)” value was found to be 2.021. For the compound `[H]/N=C(/N)N[C@H]1[C@H](O)[C@@H](O)[C@H](O[C@@H]2O[C@@H](C)[C@](O)(C=O)[C@H]2O[C@@H]2O[C@@H](CO)[C@H](O)[C@@H](O)[C@@H]2NC)[C@@H](N/C(N)=N\[H])[C@@H]1O` [STREPTOMYCIN], the “log10(%HIA +10)” value came to 1.041. In the case of `CN(N=O)C(=O)N[C@@H](C=O)[C@@H](O)[C@H](O)[C@H](O)CO` [STREPTOZOCIN], the “log10(%HIA +10)” value is 1. On to `O=C(O)CCC(=O)Nc1ccc(S(=O)(=O)Nc2nccs2)cc1` [SUCCINYLSULFATHIAZOLE], for which the “log10(%HIA +10)” value is reported as 1.176. Next, `CCN1CCCC1CNC(=O)c1cc(S(N)(=O)=O)ccc1OC` (centres undefined) [SULPIRIDE]: 1.732. As to `CCN1CCCC1CNC(=O)c1cc(S(=O)(=O)CC)ccc1OC` (centres undefined) [SULTOPRIDE], the “log10(%HIA +10)” value is listed as 1.996. Take `NC(=O)N1C(=O)/C(=C(\O)c2cccs2)c2cc(Cl)ccc21` [TENIDAP]: the “log10(%HIA +10)” value is recorded as 1.996. On to `CC(C)(C)NCC(O)c1cc(O)cc(O)c1` (centres undefined) [TERBUTALINE], for which the “log10(%HIA +10)” value came out at 1.857.

Take `CC1(C)S[C@@H]2[C@H](NC(=O)[C@H](C(=O)O)c3ccsc3)C(=O)N2[C@H]1C(=O)O` [TICARCILLIN]: the “log10(%HIA +10)” value is 1.176. For the compound `CC(C)(C)NC[C@H](O)COc1nsnc1N1CCOCC1` [TIMOLOL], the “log10(%HIA +10)” value was 2.021. For the compound `NC[C@H]1O[C@H](O[C@H]2[C@H](O)[C@@H](O[C@H]3O[C@H](CO)[C@@H](O)[C@H](N)[C@H]3O)[C@H](N)C[C@@H]2N)[C@H](N)C[C@@H]1O` [TOBRAMYCIN], the “log10(%HIA +10)” value is 1. `CCCCNC(=O)NS(=O)(=O)c1ccc(C)cc1` [TOLBUTAMIDE]: the “log10(%HIA +10)” value is 1.978. Consider `COc1ccc2c(C(=S)N(C)CC(=O)O)cccc2c1C(F)(F)F` [TOLRESTAT], for which the “log10(%HIA +10)” value stood at 1.881. Regarding `CCOC(=O)[C@H](CCc1ccccc1)N[C@@H](C)C(=O)N1[C@H](C(=O)O)C[C@H]2CCCC[C@@H]21` [TRANDOLAPRIL], the “log10(%HIA +10)” value is on record as 1.778.

With `COc1cc(Cc2cnc(N)nc2N)cc(OC)c1OC` [TRIMETHOPRIM], the “log10(%HIA +10)” value is 2.029. On to `CC(=O)CC(c1ccccc1)c1c(O)c2ccccc2oc1=O` (centres undefined) [WARFARIN], for which the “log10(%HIA +10)” value is 2.033.

In the case of `Nc1ccn([C@H]2CC[C@@H](CO)O2)c(=O)n1` [ZALCITABINE], the “log10(%HIA +10)” value is listed as 1.978.

As for `O=C1Cc2cc(CCN3CCN(c4nsc5ccccc45)CC3)c(Cl)cc2N1` [ZIPRASIDONE], the “log10(%HIA +10)” value is 1.845. With GENTAMICIN, the “log10(%HIA +10)” value was 1. Turning to IVERMECTIN, the “log10(%HIA +10)” value is recorded as 1.845.
